Data on 19 molecules can be found in patent US11034661B2, “Substituted N′-hydroxycarbamimidoyl-1,2,5-oxadiazole compounds as indoleamine 2,3-dioxygenase IDO inhibitors” (Merck Sharp & Dohme Corp., priority 2017, dated 2021).

One test concerns the target HIS-tagged IDO1 protein (Homo sapiens (Human), UniProt P14902). The test is described as follows: IDO1 Enzyme Assay. Type of test: biochemical. Conditions: recombinant IDO1 40 nM, tryptophan substrate, fluorescence readout. Here is the method:
Biological Assays IDO1 Enzyme Assay
Compounds to be tested were serially diluted in ten 3-fold steps in DMSO starting from 10 mM DMSO stocks. Compound dilutions or DMSO alone were then dispensed from the dilution plate into a Greiner black 384-well assay plate (catalog #781086) using an Echo 555 acoustic liquid handler (Labcyte).
HIS-tagged IDO1 protein was recombinantly expressed in Escherichia coli using ZYP5052 autoinduction media supplemented with 500 μM delta aminolevulinic acid for 48 hours at 16 degrees Celsius. IDO1 protein was purified using Ni^2+-affinity resin and size exclusion chromatography. Purified protein was then diluted in assay buffer (50 mM Tris pH 7.0, 1% glycerol, 20 μM methylene blue, 0.05% Tween-20, 20 mM sodium ascorbate, 100 units/mL catalase to obtain a final IDO1 concentration of 40 nM. IDO1 solution […] or buffer alone […] was dispensed to wells of the assay plate using a BioRAPTR liquid dispenser (Beckman Coulter). Assay plates containing compound and IDO1 enzyme were incubated at room temperature for 30 minutes. Afterwards, 10 μL of 400 μM tryptophan in assay buffer were added to each well of the assay plate using a BioRAPTR liquid dispenser. Plates were incubated at room temperature for 60 minutes and reactions were quenched by addition of 10 μL of 0.5 M methyl isonipecotate in dimethyl sulfoxide. Plates were sealed and incubated at 37 degrees Celsius for 4 hours or 50 degrees Celsius for 2 hours. The plates are allowed to cool and then centrifuged for 1 minute at 1000×g. The resulting fluorescence was measured in an Envision plate reader (Perkin Elmer) with a 400/25 nm excitation filter and an 510/20 nm emission filter.
Potencies were calculated by linear least squares fit to the four parameter logistic IC50 equation.

The target of test [1] is IDO1 in Hela cells stimulated with IFNγ (Homo sapiens (Human), UniProt P14902). The test is described as follows: IDO1 Cellular Assay in Hela Cells Stimulated with IFNγ. Conditions: IFNγ 100 ng/mL, about 48 hours, fluorescence readout, read-out: IDO1 HELA Cell Assay, IC50. Type of test: cell-based. Here is the method: IDO1 Cellular Assay in Hela Cells Stimulated with IFNγ
IDO1 in Hela cells stimulated with IFNγ, sequence (P14902 whole entry): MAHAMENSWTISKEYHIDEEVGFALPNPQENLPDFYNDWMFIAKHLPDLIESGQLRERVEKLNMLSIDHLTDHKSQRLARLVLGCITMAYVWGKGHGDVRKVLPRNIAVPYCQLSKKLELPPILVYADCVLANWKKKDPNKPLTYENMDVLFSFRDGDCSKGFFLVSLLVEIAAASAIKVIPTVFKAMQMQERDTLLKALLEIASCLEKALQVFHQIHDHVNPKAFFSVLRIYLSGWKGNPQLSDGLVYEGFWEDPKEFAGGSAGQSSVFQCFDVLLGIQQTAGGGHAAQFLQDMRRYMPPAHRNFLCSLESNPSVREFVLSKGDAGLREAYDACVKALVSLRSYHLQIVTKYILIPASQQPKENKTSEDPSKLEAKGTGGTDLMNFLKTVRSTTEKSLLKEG
Hela cells were cultured in complete Hela culture medium (90% EMEM, 10% heat-inactivated fetal bovine serum) and expanded to about 1×10^9 cells. The cells were then collected and frozen down at 10×10^6 cells/vial in 1 mL frozen medium (90% complete Hela culture medium, 10% DMSO)
Compounds to be tested were serially diluted in ten 3-fold steps in DMSO starting from 10 mM DMSO stocks in Echo low volume plate(s). Compound dilutions or DMSO alone were then dispensed from the dilution plate(s) into Greiner black 384-well assay plate(s) (catalog #781086, 50 nL/well) using an Echo 550 acoustic liquid handler (Labcyte).
Frozen Hela cells were thawed and transferred into Hela assay medium (99% complete Hela culture medium, 1% Pen/Strep) with 20 mL medium/vial of cells. The cells were spun down at 250 g in a table top centrifuge for 5 min and suspended in same volume of Hela assay medium. The cells were then counted and adjusted to a density of 2×10^5 cells/ml in Hela assay medium. Sterile L-tryptophan were added to the cells with final concentration of 300 uM L-tryptophan. A small aliquot (2 mL/plate) of Hela cells were set aside and were not treated with IFNγ, to serve as the Max-E control. The rest of Hela cells were added with sterile IFNγ (Cat #285-IF, R & D systems) with a final concentration of 100 ng/mL.
Hela cells with and without IFNγ were dispensed to the respective wells of 384-well assay plates containing the compounds. The plates were incubated for about 48 hours at a 37° C., 5% CO2 incubator. Afterwards, 12 μL of 0.5 M methyl isonipecotate in dimethyl sulfoxide were added into each well and the plates were sealed and incubated at 37° C. without CO2 overnight. The plates were centrifuged for 1 min at 200×g. The resulting fluorescence was measured in a Spectramax plate reader (Molecular Devices) with a 400 nm excitation filter and a 510 nm emission filter.
The fluorescence intensity of each well was corrected for the background observed in wells with non-IFNγ-treated cells and was expressed as a fraction of the intensity observed in wells of IFNγ-treated cells and DMSO only. Potencies were calculated by linear least squares fit to the four parameter logistic IC50 equation.

HIS-tagged IDO1 protein, sequence (P14902 whole entry): as above

As for `C[C@H](CO)NC(=O)COc1nonc1/C(=N/O)N[C@H]1Cc2ccc(F)cc21` [Example 8, 2-[(4-{N-[(7S)-4-fluorobicyclo[4.2.0]octa-1,3,5-trien-7-yl]-N′-hydroxycarbamimidoyl}-1,2,5-oxadiazol-3-yl)oxy]-N-[(2R)-1-hydroxypropan-2-yl]acetamide], the IC50 (usually the concentration needed to halve the response being measured) at HIS-tagged IDO1 protein came to 110 nM; in test [1], 416 nM.
Consider `C[C@H](O)CNC(=O)COc1nonc1/C(=N/O)N[C@H]1Cc2ccc(F)cc21` [Example 9, 2-[(4-{N-[(7S)-4-fluorobicyclo[4.2.0]octa-1,3,5-trien-7-yl]-N′-hydroxycarbamimidoyl}-1,2,5-oxadiazol-3-yl)oxy]-N-[(2S)-2-hydroxypropyl]acetamide], for which the IC50 at HIS-tagged IDO1 protein is 413 nM; in test [1] it was 624 nM.
On to `C[C@@H](O)CNC(=O)COc1nonc1/C(=N/O)N[C@H]1Cc2ccc(F)cc21` [Example 10, 2-[(4-{N-[(7S)-4-fluorobicyclo[4.2.0]octa-1,3,5-trien-7-yl]-N′-hydroxycarbamimidoyl}-1,2,5-oxadiazol-3-yl)oxy]-N-[(2R)-2-hydroxypropyl]acetamide], for which the IC50 on HIS-tagged IDO1 protein worked out at 100 nM; in test [1], 335 nM.
In the case of `O=C(COc1nonc1/C(=N/O)NC1Cc2ccc(F)cc21)NCC(O)CO` (centres unmarked) [Example 12, N-(2,3-dihydroxypropyl)-2-({4-[N-(4-fluorobicyclo[4.2.0]octa-1,3,5-trien-7-yl)-N′-hydroxycarbamimidoyl]-1,2,5-oxadiazol-3-yl}oxy)acetamide], the values for the IC50 (at HIS-tagged IDO1 protein; in test [1]) were 700 nM and 920 nM, respectively.
As for `O=C(COc1nonc1/C(=N/O)N[C@H]1CCc2ccc(F)cc21)NCCO` [Example 13, 2-[(4-{N-[(1S)-6-fluoro-2,3-dihydro-1H-inden-1-yl]-N′-hydroxycarbamimidoyl}-1,2,5-oxadiazol-3-yl)oxy]-N-(2-hydroxyethyl)acetamide], the IC50 amounted to 483 nM on HIS-tagged IDO1 protein and 774 nM in test [1].
Regarding `CC(C)(O)CNC(=O)COc1nonc1/C(=N/O)NC1Cc2ccc(F)cc21` (centres unmarked) [Example 14, 2-({4-[N-(4-fluorobicyclo[4.2.0]octa-1,3,5-trien-7-yl)-N′-hydroxycarbamimidoyl]-1,2,5-oxadiazol-3-yl}oxy)-N-(2-hydroxy-2-methylpropyl)acetamide], the IC50 on HIS-tagged IDO1 protein is 985 nM; in test [1], 770 nM.
Take `NC(=O)N(CCO)CCOc1nonc1/C(=N/O)NC1Cc2ccc(F)cc21` (centres unmarked) [Example 15, 4-{2-[carbamoyl(2-hydroxyethyl)amino]ethoxy}-N-(4-fluorobicyclo[4.2.0]octa-1,3,5-trien-7-yl)-N′-hydroxy-1,2,5-oxadiazole-3-carboximidamide]: the values for the IC50 (on HIS-tagged IDO1 protein; in test [1]) were 479 nM and 685 nM, respectively.
With `O=C(COc1nonc1/C(=N/O)N[C@H]1Cc2ccc(F)cc21)NC[C@@H](O)CO` [Example 16, N-[(2R)-2,3-dihydroxypropyl]-2-[(4-{N-[(7S)-4-fluorobicyclo[4.2.0]octa-1,3,5-trien-7-yl]-N′-hydroxycarbamimidoyl}-1,2,5-oxadiazol-3-yl)oxy]acetamide], the IC50 at HIS-tagged IDO1 protein amounted to 447 nM; in test [1], 509 nM.
In the case of `NC(=O)COc1nonc1/C(=N/O)N[C@H]1Cc2ccc(F)cc21` [Example 17, 2-[(4-{N-[(7S)-4-fluorobicyclo[4.2.0]octa-1,3,5-trien-7-yl]-N′-hydroxycarbamimidoyl}-1,2,5-oxadiazol-3-yl)oxy]acetamide], the concentration for half-maximal inhibition (IC50) at HIS-tagged IDO1 protein was determined as 186 nM; in test [1] it was 220 nM.
In the same order, the values of `NC(=O)NCCCOc1nonc1/C(=N/O)N[C@H]1Cc2ccc(F)cc21` [Example 18, 4-[3-(carbamoylamino)propoxy]-N-[(7S)-4-fluorobicyclo[4.2.0]octa-1,3,5-trien-7-yl]-N′-hydroxy-1,2,5-oxadiazole-3-carboximidamide] are 74.7 nM and 301 nM.
Take `CC(C)(Oc1nonc1/C(=N/O)NC1Cc2ccc(F)cc21)C(=O)NCCO` (centres unmarked) [Example 19, 2-({4-[N-(4-fluorobicyclo[4.2.0]octa-1,3,5-trien-7-yl)-N′-hydroxycarbamimidoyl]-1,2,5-oxadiazol-3-yl}oxy)-N-(2-hydroxyethyl)-2-methylpropanamide]: the IC50 on HIS-tagged IDO1 protein was found to be 7790 nM; in test [1], 2850 nM.
As for `O=C(NCCOc1nonc1/C(=N/O)N[C@H]1Cc2ccc(F)cc21)[C@H](O)CO` [Example 20, (2R)-N-{2-[(4-{N-[(7S)-4-fluorobicyclo[4.2.0]octa-1,3,5-trien-7-yl]-N′-hydroxycarbamimidoyl}-1,2,5-oxadiazol-3-yl)oxy]ethyl}-2,3-dihydroxypropanamide], the IC50 came to 302 nM at HIS-tagged IDO1 protein and 2360 nM in test [1].
As for `O/N=C(\N[C@H]1Cc2ccc(F)cc21)c1nonc1OC1CNC1` [Example 21, 4-[(azetidin-3-yl)oxy]-N-[(7S)-4-fluorobicyclo[4.2.0]octa-1,3,5-trien-7-yl]-N′-hydroxy-1,2,5-oxadiazole-3-carboximidamide], the IC50 at HIS-tagged IDO1 protein amounted to 224 nM; in test [1] it was 1780 nM.
For the molecule `O=C(NCCOc1nonc1/C(=N/O)N[C@H]1Cc2ccc(F)cc21)c1nc[nH]n1` [Example 22, N-{2-[(4-{N-[(7S)-4-fluorobicyclo[4.2.0]octa-1,3,5-trien-7-yl]-N′-hydroxycarbamimidoyl}-1,2,5-oxadiazol-3-yl)oxy]ethyl}-1H-1,2,4-triazole-3-carboxamide], the IC50 on HIS-tagged IDO1 protein came to 264 nM; in test [1] it was 308 nM.
Take `CC(Oc1nonc1/C(=N/O)NC1Cc2ccc(F)cc21)C(=O)NCCO` (centres unmarked) [Example 23, 2-({4-[N-(4-fluorobicyclo[4.2.0]octa-1,3,5-trien-7-yl)-N′-hydroxycarbamimidoyl]-1,2,5-oxadiazol-3-yl}oxy)-N-(2-hydroxyethyl)propanamide]: the IC50 is 1670 nM on HIS-tagged IDO1 protein and 1930 nM in test [1].
The matching figures for `NS(=O)(=O)NCCOc1nonc1/C(=N/O)N[C@H]1CCc2ccc(F)cc21` [Example 24, N-[(1S)-6-fluoro-2,3-dihydro-1H-inden-1-yl]-N′-hydroxy-4-[2-(sulfamoylamino)ethoxy]-1,2,5-oxadiazole-3-carboximidamide]: 421 nM and 1300 nM.
As to `O=C(CO)N1CC[C@H](Oc2nonc2/C(=N/O)N[C@H]2Cc3ccc(F)cc32)C1` [Example 25, N-[(7S)-4-fluorobicyclo[4.2.0]octa-1,3,5-trien-7-yl]-N′-hydroxy-4-{[(3S)-1-(hydroxyacetyl)pyrrolidin-3-yl]oxy}-1,2,5-oxadiazole-3-carboximidamide], the IC50 on HIS-tagged IDO1 protein was 1200 nM; in test [1] it was 2000 nM.
Regarding `O=C(NCCOc1nonc1/C(=N/O)N[C@H]1Cc2ccc(F)cc21)[C@@H](O)CO` [Example 26, (2S)-N-{2-[(4-{N-[(7S)-4-fluorobicyclo[4.2.0]octa-1,3,5-trien-7-yl]-N′-hydroxycarbamimidoyl}-1,2,5-oxadiazol-3-yl)oxy]ethyl}-2,3-dihydroxypropanamide], the IC50 amounted to 214 nM at HIS-tagged IDO1 protein and 284 nM in test [1].
As for `CS(=O)(=O)CCOc1nonc1/C(=N/O)N[C@H]1Cc2ccc(F)cc21` [Example 27, N-[(7S)-4-fluorobicyclo[4.2.0]octa-1,3,5-trien-7-yl]-N′-hydroxy-4-[2-(methylsulfonyl)ethoxy]-1,2,5-oxadiazole-3-carboximidamide], the IC50 came to 1480 nM at HIS-tagged IDO1 protein and 1330 nM in test [1].
